Data from ChEMBL document CHEMBL1201862, “PubChem BioAssay data set” (2004).
Activity calls are given as the source filed them.

Experiments:
[1] = target: T1, Rac GTPase-activating protein 1 (Homo sapiens, UniProt Q9H0H5); assay: MgcRacGAP GTPase-activating activity inhibitors, confirmation, biochemical, ADP Hunter fluorescence, primary and confirmatory (AID 624330); type: functional
T1 sequence (Q9H0H5 whole entry): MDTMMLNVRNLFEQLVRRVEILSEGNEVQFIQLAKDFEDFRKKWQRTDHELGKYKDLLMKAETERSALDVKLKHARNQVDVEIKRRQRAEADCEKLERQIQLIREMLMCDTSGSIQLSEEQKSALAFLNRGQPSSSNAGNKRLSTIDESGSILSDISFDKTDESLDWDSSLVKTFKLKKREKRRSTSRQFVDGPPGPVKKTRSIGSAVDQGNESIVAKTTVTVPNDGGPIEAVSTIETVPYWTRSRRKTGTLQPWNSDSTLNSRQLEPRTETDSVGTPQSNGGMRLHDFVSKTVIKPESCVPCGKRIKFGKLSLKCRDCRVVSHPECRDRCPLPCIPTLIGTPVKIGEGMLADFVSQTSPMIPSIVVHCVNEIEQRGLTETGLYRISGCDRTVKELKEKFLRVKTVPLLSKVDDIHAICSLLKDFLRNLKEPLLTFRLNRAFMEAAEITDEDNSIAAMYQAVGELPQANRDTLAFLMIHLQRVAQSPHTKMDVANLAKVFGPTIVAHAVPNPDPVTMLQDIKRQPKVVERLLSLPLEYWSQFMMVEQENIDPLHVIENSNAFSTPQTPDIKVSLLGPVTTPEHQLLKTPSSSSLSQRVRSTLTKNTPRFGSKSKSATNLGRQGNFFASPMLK

[2] = target: Beta-2 adrenergic receptor (Homo sapiens, UniProt P07550); assay: beta2AR agonists driving receptor internalization, dose response, cell-based, FAP fluorogen, flow cytometry, cherry pick 1 (AID 588763); type: functional
Sequence of Beta-2 adrenergic receptor (P07550 whole entry): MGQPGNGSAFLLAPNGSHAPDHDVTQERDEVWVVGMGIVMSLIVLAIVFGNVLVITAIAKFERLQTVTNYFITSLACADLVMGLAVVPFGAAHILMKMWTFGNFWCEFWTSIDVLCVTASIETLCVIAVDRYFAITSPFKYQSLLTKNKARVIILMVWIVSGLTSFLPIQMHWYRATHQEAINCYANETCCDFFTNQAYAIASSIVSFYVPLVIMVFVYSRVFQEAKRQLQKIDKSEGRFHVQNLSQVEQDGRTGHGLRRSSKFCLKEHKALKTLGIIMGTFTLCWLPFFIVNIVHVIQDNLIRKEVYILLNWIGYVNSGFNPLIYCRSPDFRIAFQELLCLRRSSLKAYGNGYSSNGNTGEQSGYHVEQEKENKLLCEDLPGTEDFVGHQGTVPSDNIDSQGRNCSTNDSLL

Large T antigen = Large T antigen (Simian virus 40, UniProt P03070); type: functional, Betapolyomavirus macacae;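 note: Confirmatory-stage PubChem screen for compounds that inhibit SV40 T antigen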
[3] = target: Glyceraldehyde-3-phosphate dehydrogenase (Homo sapiens, UniProt P04406)
Sequence of Glyceraldehyde-3-phosphate dehydrogenase (P04406 whole entry): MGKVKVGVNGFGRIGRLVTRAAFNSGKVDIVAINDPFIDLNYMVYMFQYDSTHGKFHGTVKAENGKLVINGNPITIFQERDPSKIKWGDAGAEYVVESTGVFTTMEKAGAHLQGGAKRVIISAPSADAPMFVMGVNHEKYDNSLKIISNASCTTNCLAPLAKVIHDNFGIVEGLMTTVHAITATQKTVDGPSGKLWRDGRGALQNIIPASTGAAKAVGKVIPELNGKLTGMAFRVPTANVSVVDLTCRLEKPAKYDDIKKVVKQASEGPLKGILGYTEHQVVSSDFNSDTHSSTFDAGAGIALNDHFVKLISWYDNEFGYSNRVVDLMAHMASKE

[4] = target: T2, Alkaline phosphatase, tissue-nonspecific isozyme (Homo sapiens, UniProt P05186); assay: human TNAP enzyme inhibitors, SAR follow-up, biochemical, luminescent, dose response (AID 1056)
T2 sequence (P05186 whole entry): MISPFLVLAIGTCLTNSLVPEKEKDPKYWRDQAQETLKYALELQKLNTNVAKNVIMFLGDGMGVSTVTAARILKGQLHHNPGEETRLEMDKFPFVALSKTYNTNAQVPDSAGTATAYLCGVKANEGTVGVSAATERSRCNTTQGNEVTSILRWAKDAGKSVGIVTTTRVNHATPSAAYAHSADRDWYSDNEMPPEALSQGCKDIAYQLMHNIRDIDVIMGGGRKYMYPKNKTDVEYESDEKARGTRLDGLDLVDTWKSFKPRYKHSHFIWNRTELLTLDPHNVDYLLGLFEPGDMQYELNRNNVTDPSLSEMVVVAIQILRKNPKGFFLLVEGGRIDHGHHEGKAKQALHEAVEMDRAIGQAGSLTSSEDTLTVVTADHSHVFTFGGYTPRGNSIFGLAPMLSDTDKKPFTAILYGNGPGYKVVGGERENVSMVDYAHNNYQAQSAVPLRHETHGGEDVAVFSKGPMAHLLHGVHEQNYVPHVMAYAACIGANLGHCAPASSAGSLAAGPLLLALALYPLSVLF

Protein skinhead-1 = target: T3, Protein skinhead-1 (Caenorhabditis elegans, UniProt P34707); type: functional
T3 sequence (P34707 whole entry): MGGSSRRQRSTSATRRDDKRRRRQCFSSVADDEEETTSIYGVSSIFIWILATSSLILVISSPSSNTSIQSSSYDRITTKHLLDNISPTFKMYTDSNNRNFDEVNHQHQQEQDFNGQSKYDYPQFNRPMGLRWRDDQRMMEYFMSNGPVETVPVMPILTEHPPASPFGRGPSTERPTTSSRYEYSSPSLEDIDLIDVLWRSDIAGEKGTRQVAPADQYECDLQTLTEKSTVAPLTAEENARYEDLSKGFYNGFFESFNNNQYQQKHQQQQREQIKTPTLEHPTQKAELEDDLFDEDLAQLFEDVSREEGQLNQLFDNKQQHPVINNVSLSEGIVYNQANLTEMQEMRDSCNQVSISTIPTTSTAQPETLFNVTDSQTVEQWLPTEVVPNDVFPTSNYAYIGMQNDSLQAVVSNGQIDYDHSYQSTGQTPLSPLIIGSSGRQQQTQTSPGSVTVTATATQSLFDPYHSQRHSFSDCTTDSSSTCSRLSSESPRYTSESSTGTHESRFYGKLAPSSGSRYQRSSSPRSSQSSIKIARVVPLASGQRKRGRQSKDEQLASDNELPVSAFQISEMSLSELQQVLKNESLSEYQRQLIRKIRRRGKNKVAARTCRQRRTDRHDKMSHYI

[5] = target: ATP-dependent molecular chaperone HSP82 (Candida albicans (strain WO-1) (Yeast), UniProt C4YTQ8); assay: loss of DOC-induced GRE-beta-galactosidase reporter signal, dose response, Hsp90 inhibitor project, S. cerevisiae, luminescence (AID 2400); type: functional, cell-based;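 note: beta-galactosidase luminescence from glucocorticoid response element reporter as proxy for Hsp90 function; inhibitor potency where signal loss means Hsp90 inhibition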
Sequence of ATP-dependent molecular chaperone HSP82 (C4YTQ8 whole entry): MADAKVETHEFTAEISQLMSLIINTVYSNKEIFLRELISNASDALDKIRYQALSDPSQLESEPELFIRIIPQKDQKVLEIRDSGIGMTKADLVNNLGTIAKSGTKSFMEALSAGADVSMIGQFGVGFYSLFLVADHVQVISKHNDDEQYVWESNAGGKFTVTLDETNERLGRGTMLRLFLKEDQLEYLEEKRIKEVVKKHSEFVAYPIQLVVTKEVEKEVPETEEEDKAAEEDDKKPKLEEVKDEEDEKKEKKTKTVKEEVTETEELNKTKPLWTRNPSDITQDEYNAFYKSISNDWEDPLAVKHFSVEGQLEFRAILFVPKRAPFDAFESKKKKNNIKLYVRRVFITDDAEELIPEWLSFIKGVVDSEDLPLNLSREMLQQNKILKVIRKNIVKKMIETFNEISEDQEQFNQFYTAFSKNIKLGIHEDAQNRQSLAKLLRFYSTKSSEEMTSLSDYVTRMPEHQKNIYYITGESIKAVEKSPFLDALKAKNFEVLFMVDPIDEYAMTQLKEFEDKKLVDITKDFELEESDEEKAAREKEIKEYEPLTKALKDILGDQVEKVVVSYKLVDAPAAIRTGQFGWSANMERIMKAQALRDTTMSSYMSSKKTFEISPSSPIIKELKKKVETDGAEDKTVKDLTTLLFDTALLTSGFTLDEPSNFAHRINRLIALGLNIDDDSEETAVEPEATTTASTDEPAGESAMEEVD

[6] = NIH-3T3 fibroblast cytotoxicity, dose response, cytotoxicity control, cell-based, fluorescence, Alamar Blue, secondary assay (AID 2327); type: functional;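 note: NIH-3T3 mouse fibroblasts cultured with fluconazole at 8 µg/mL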
[7] = target: T4, Serine/threonine-protein phosphatase (Candida dubliniensis (strain CD36 / CBS 7987 / NCPF 3949 / NRRLY-17841) (Yeast), UniProt B9W6M3); assay: calcineurin pathway inhibitors in yeast reporter, dose response, S. cerevisiae, CDRE-lacZ, luminescence, secondary (AID 2388); type: functional, cell-based;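 note: yeast reporter cells carrying a calcineurin-responsive lacZ construct stimulated with calcium chloride; luminescent beta-galactosidase reporter signal in whole cells rather than isolated phosphatase activity; potency for inhibition where a drop in reporter signal means calcineurin blockade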
T4 sequence (B9W6M3 whole entry): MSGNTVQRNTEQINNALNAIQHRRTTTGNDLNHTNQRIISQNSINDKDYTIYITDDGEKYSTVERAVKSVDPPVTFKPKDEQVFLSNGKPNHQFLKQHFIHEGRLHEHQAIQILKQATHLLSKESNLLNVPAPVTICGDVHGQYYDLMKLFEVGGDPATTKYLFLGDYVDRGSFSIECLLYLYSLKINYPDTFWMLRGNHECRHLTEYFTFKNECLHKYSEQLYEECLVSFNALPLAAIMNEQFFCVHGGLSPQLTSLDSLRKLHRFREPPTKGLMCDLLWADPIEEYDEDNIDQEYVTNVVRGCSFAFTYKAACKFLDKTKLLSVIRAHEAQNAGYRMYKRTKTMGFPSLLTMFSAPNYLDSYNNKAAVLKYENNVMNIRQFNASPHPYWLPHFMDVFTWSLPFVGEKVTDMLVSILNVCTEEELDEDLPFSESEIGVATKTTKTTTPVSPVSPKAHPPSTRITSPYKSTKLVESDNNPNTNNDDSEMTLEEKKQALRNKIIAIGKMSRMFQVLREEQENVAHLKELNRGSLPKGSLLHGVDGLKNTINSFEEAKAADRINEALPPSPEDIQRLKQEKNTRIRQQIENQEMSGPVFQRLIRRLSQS

[8] = C. albicans growth with fluconazole, confirmation, fluorescence, retest (AID 2467); type: functional, cell-based
Fatty acid synthase [9] = target: T5, Fatty acid synthase (Homo sapiens, UniProt P49327); assay: FAS thioesterase domain inhibitors, dose response, biochemical, endpoint fluorescence intensity, uHTS hits (AID 624327); type: functional;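 note: fluorescence from hydrolysis of an O-methyl fluorescein acyl ester substrate by the enzyme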
T5 sequence (P49327 whole entry, the tested form may be a part): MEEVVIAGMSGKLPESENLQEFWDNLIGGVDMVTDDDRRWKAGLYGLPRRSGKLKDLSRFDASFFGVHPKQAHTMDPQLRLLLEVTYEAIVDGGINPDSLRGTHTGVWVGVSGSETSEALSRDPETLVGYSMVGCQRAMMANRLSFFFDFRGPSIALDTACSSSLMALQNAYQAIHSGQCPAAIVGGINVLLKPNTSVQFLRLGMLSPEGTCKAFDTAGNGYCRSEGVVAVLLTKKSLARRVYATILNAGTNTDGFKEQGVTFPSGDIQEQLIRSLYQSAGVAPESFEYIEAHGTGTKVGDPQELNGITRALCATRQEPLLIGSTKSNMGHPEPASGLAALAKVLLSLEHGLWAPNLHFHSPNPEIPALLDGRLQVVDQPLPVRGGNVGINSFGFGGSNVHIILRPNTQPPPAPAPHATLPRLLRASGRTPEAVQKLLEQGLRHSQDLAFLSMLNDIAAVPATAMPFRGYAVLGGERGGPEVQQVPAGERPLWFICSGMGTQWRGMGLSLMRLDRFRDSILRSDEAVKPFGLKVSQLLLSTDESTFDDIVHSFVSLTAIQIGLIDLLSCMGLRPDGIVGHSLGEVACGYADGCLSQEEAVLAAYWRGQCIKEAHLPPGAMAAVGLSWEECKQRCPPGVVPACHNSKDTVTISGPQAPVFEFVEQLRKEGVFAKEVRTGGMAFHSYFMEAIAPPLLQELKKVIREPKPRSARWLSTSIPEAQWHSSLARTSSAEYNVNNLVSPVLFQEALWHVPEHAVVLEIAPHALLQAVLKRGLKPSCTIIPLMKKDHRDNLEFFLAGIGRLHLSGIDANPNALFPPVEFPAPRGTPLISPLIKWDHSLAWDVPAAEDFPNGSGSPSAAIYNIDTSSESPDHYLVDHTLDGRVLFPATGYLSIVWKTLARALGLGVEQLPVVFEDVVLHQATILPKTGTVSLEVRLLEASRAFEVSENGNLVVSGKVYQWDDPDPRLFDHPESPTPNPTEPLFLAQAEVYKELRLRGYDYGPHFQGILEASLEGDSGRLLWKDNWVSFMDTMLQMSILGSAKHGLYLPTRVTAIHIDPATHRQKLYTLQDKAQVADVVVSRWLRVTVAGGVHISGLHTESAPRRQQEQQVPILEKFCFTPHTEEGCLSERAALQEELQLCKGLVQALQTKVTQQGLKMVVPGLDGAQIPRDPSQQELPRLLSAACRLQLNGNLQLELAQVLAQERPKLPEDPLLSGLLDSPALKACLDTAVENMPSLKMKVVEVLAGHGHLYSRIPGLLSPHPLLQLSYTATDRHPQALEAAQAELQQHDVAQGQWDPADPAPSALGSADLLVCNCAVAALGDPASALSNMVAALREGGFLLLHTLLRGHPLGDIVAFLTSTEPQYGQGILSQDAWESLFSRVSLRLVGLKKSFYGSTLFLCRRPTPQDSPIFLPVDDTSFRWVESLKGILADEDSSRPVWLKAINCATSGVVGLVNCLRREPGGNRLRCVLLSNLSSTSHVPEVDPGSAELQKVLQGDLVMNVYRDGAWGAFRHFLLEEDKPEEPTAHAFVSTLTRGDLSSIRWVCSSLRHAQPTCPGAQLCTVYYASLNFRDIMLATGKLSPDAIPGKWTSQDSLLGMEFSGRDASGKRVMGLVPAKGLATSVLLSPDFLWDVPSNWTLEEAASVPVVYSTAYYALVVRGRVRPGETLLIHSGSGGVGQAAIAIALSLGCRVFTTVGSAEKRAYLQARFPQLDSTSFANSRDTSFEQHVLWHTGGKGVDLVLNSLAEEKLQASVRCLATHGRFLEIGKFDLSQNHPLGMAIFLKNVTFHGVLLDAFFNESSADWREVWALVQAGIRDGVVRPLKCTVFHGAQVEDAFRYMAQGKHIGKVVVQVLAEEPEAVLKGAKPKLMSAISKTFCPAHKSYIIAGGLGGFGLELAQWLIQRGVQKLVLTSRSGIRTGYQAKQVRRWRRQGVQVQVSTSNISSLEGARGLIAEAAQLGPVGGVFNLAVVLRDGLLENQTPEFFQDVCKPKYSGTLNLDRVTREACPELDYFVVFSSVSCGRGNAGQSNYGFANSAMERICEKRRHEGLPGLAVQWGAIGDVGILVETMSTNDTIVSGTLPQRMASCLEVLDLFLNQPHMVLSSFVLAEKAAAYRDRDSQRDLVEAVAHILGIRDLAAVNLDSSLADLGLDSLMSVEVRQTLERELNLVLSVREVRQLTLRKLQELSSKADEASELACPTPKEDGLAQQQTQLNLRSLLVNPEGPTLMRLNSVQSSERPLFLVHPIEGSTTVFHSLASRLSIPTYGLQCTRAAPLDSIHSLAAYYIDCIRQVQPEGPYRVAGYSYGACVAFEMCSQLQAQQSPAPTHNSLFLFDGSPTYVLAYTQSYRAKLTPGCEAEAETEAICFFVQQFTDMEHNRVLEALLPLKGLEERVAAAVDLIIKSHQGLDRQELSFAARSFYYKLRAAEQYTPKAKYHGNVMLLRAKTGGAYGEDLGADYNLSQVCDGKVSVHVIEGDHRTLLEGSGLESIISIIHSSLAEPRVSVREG

Fatty acid synthase [10] = target: T5, Fatty acid synthase; assay: FAS thioesterase domain inhibitors, dose response, biochemical, kinetic fluorescence intensity (AID 624326); type: functional;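 note: rate of fluorescence rise from hydrolysis of a fluorogenic O-methyl fluorescein ester substrate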
Coagulation factor XII = target: T6, Coagulation factor XII (Homo sapiens, UniProt P00748); type: functional;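 note: activated factor XIIa alpha cleaving a fluorogenic AMC peptide substrate; inhibitor potency from loss of enzyme activity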
T6 sequence (P00748 whole entry): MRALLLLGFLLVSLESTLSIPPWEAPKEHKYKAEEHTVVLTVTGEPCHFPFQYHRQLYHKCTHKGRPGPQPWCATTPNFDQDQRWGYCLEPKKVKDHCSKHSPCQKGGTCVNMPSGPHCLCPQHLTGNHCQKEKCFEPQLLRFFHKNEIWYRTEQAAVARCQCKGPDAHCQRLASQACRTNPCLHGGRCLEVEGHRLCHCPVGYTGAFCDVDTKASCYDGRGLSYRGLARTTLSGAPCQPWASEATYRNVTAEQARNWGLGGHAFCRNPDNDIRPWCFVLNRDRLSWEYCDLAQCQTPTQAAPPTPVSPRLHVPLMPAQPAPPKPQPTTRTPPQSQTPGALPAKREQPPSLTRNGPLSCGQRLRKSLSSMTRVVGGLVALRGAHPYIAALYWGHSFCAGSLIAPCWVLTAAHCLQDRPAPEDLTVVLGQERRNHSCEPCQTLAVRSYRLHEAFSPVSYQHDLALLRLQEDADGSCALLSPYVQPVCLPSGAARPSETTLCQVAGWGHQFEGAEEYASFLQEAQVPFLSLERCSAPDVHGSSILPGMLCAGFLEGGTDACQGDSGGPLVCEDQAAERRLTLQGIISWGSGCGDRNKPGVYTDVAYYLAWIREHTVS

[11] = target: Protein-tyrosine kinase 2-beta (Homo sapiens, UniProt Q14289);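 note: potency of inhibitors of PYK2 kinase phosphorylation of poly-GT substrate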
Troponin, cardiac muscle = Troponin, cardiac muscle (Homo sapiens, UniProt P19429+P45379+P63316); assay: Fluorescence-based biochemical high throughput dose response assay for activators of the calcium sensitivity of cardiac Regulated Thin Filaments (RTF). [Related pubchem assays (depositor defined):AID493008, AID493018, AID504382, AID504383]; type: protein-complex assay
BJ [12] = assay: cytotoxicity toward BJ-TERT-LT-ST fibroblasts, dose response, cell-based, RAS-independent, luminescence (AID 1935); type: functional; conditions: Homo sapiens;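 note: BJ fibroblasts immortalized with TERT plus LT and ST oncogenes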
[13] = cytotoxicity toward DRD oncogenic fibroblasts, dose response, cell-based, non-viral oncogenic, luminescence (AID 1934); type: functional; conditions: Homo sapiens
BJ [14] = assay: cells; type: functional, cell-based; conditions: Homo sapiens
[15] = target: G-protein coupled receptor 55 (Homo sapiens, UniProt Q9Y2T6); assay: GPR55 antagonists blocking LPI-driven arrestin recruitment, primary screen, imaging, U2OS, beta-arrestin-GFP, LPI agonist (AID 2013); type: functional;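 note: antagonist potency measured as reduced agonist-driven arrestin aggregation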
Sequence of G-protein coupled receptor 55 (Q9Y2T6 whole entry): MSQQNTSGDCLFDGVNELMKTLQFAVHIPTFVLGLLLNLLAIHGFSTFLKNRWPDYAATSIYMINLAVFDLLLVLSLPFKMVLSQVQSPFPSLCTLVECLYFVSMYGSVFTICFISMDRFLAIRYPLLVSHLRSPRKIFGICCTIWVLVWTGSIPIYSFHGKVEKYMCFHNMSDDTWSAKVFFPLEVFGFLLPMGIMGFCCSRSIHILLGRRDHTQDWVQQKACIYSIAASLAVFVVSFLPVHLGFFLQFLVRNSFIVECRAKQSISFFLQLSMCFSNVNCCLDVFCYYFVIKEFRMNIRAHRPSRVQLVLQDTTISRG

[16] = cytotoxicity in MIN6 insulinoma cells, dose response, cytotoxicity control, cell-based, mouse insulinoma (AID 2122); type: functional;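 note: confirmatory high-throughput counterscreen run to flag cytotoxic compounds; mouse MIN-6 beta cells carrying an insulin promoter eGFP reporter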
BJ [17] = assay: cytotoxicity toward BJ-TERT fibroblasts, dose response, cell-based, RAS-independent, luminescence (AID 1933); type: functional; conditions: Homo sapiens
[18] = insulin promoter down-regulators in MIN6 cells, imaging, high-content screening, mouse beta cells (AID 1628); type: functional
[19] = target: FAD-linked sulfhydryl oxidase ALR (Homo sapiens, UniProt P55789); assay: inhibitors of human ALR sulfhydryl oxidase, dose response, biochemical, H2O2 detection, luminescence, cherry-pick (AID 493248)
Sequence of FAD-linked sulfhydryl oxidase ALR (P55789 whole entry): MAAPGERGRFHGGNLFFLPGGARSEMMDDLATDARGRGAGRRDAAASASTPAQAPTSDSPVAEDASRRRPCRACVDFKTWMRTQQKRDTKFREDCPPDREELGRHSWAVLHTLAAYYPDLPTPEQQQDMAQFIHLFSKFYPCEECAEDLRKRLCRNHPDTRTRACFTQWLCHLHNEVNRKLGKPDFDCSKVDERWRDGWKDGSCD

Nonstructural protein 1 = Nonstructural protein 1 (Influenza A virus, UniProt Q194T2); type: functional, Influenza A virus (A/California/07/2009(H1N1))
Sequence of Nonstructural protein 1 (Q194T2 whole entry): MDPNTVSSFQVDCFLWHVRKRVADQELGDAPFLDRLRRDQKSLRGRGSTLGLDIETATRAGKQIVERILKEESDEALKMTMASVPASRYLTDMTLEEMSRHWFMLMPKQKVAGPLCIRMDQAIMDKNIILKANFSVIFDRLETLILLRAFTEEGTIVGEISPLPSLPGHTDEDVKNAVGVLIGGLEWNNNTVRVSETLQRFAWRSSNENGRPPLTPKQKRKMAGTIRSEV

P388/ADR = assay: cells; type: functional; conditions: Mus musculus
P388 = assay: cells; type: functional; conditions: Mus musculus
SN12K1 = assay: cells; type: functional; conditions: Homo sapiens
HEK293 = assay: inhibitors of LMP1-driven NF-kB reporter, dose response, cell-based, HEK293, luciferase, cherry-pick (AID 588343); type: functional; conditions: Homo sapiens

CCOC(=O)C1(C)C=C(Nc2ccc(O)cc2)C(=O)N1c1ccc(O)cc1 (stereo not drawn)
IC50 [1]: 21.4 µM (active) | EC50 [2]: 1.09 µM (active) | IC50 (Large T antigen): 8.11 µM (active)

COC(=O)c1cc(-c2ccc(Br)cc2)n[nH]1
IC50 [3]: > 100 µM (not active) | IC50 [4]: > 100 µM (inactive) | IC50 (Protein skinhead-1): > 100 µM (inactive)

O=C(Cc1nc2ccccc2s1)c1ccc(O)cc1O
EC50 [5]: > 160 µM (inactive) | EC50 [6]: > 160 µM (inactive) | EC50 [7]: > 180 µM (inactive) | EC50 [8]: 0.691 µM (active)

COc1cc2ncc(S(=O)(=O)c3ccccc3)c(N3CCCC(C)C3)c2cc1OC (stereo not drawn)
IC50 (Fatty acid synthase [9]): 4.78 µM (active) | IC50 (Fatty acid synthase [10]): 3.13 µM (active) | EC50 [2]: 1.07 µM (active)

O=c1oc(-c2ccc(Br)o2)nc2ccccc12
IC50 (Coagulation factor XII): > 50 µM (inactive) | IC50 [11]: 2.66 µM (active)

COc1ccccc1N1CCN(c2ccc([N+](=O)[O-])cc2Cl)CC1
EC50 (Troponin, cardiac muscle): > 71.5 µM (inactive)

N#C/C(=C\c1ccc(N2CCOCC2)cc1)c1ccccc1
EC50 [5]: 68.9 µM (active) | EC50 [6]: > 150 µM (inactive) | EC50 [7]: > 180 µM (inactive) | EC50 [8]: 0.49 µM (active)

CCc1nc(C)cn1S(=O)(=O)c1cc([N+](=O)[O-])ccc1Cl
EC50 (BJ [12]): 3.93 µM (active) | EC50 [13]: 7.62 µM (inconclusive) | EC50 (BJ [14]): 4.81 µM (inconclusive) | IC50 [15]: 6.53 µM (active) | IC50 [16]: 2.53 µM (active) | EC50 (BJ [17]): 8.45 µM (inconclusive) | IC50 [18]: 2.59 µM (active)

NS(=O)(=O)c1ccc(NNC(=O)c2sccc2Cl)cc1
IC50 (Coagulation factor XII): > 50 µM (inactive)

O=C1NC(=O)N(Cc2ccc(F)cc2)C(=O)/C1=C/NNc1ccccc1
EC50 (Troponin, cardiac muscle): > 71.5 µM (inactive) | AC50 [19]: 0.438 µM (active)

CC1=NN(c2ccc(C)cc2)C(=O)/C1=C\C=C\c1ccccc1
IC50 (Nonstructural protein 1): 21.1 µM (active)

O=C(COc1ccccc1F)N1c2ccccc2CCc2ccccc21
EC50 [2]: 1.6 µM (active)

COCCOCOc1ccc(OCc2ccccc2)cc1
GI50 (P388/ADR): 24 µM (inactive) | GI50 (P388): 31.3 µM (inactive) | GI50 (SN12K1): > 100 µM (inactive)

COc1cc2c(cc1Oc1ccc(OC)c3c1CC1c4c(cc(OC)c(OC)c4-3)CCN1C)CC1c3c(cc(OC)c(OC)c3-2)CCN1C (stereo not drawn)
GI50 (P388/ADR): 1.87 µM (inactive) | GI50 (P388): 1.77 µM (inactive) | GI50 (SN12K1): 0.424 µM (active)

Cc1ccccc1-c1nc2c(C(=O)NCCN(C)C)cccc2[nH]1
GI50 (P388/ADR): 26.5 µM (inactive) | GI50 (P388): 16.3 µM (inactive) | GI50 (SN12K1): 30.5 µM (inactive)

Cc1ccsc1/C=N/NC(=O)c1ccc2c(c1)OCCO2
IC50 (Coagulation factor XII): > 50 µM (inactive) | AC50 (HEK293): 7.87 µM (active)
